Laboratory results as given in publication PMC7719179, “Small molecule inhibition of Dynamin-dependent endocytosis targets multiple niche signals and impairs leukemia stem cells” (Nature Communications, 2020).
Like-named read-outs stand apart in the source and are kept apart here.

Legend:
[1] = system: Human CD34-positive (CD34+) hematopoietic stem and progenitors; assay: Relative viability of human CD34+ hematopoietic stem and progenitors, 48 h; format: cell-based; design: Relative % viable cells: dose or concentration left out as unconfirmed; details: 48 h
Experimental: (§1) Supplementary Figure 7. Efficacy of Dynole 34-2 for human T-ALL. a, b, Relative viability (%) of patient-derived (a ) ETP- ALL1 and (b) T-ALL 2 xenografts treated with increasing concentration of Dynole 34-2 for 48 hours. Viability was normalized to vehicle-treated cells with experiments performed in duplicates. Human CD34-positive (CD34+) hematopoietic stem and progenitors from healthy donors (N=3) were used as controls. […]

[2] = as above; format: cell-based; design: Relative % viable cells: dose or concentration left out as unconfirmed
Experimental: as §1

[3] = system: IL-7R internalization in Ba/F3-IL7R cells; assay: Colocalization of IL-7R with clathrin and Rab5 after IL-7 stimulation (immunofluorescence); format: cell-based, murine; details: Ba/F3-IL7R cells after IL-7 stimulation, vs vehicle; result in words
Experimental: For dynamic analysis of IL-7R internalization, 1 × 10^5 Ba/F3-IL-7R cells were incubated with Phycoerythrin (PE)-conjugated α-CD127 (A7R34, BioLegend) for 30 min on ice, washed twice in cold PBS 1×, resuspended in serum-free Dulbecco’s modified Eagle’s medium (DMEM) and stimulated with 50 ng/mL IL-7 at 37 °C for the indicated intervals. Cells were fixed, permeabilized and incubated with either α-clathrin (ab21679, Abcam Australia) or α-Rab5 (ab18211, Abcam Australia), as previously described. Washed cells were incubated in permeabilization buffer with donkey Alexa Fluor 488-conjugated anti-rabbit secondary antibody (A-21206, Molecular Probes, Life Technologies) for 1 h on ice. Cells were washed, incubated with 1 ng/mL 4′,6-diamidino-2-phenylindole for 15 min, washed twice and mounted using Mowiol mounting medium (81381, Sigma-Aldrich Pty Ltd, Castle Hill, NSW). For each independent experiment, at least 50 different fields of view were collected for blinded quantification, for each time point. All images were acquired using a Nikon A1r Plus SI inverted confocal microscope (Nikon Australia, Rhodes, NSW) using a Plan Apo ×60 oil objective.

## CCCCCCCCNC(=O)C(C#N)=Cc1cn(CCCN(C)C)c2ccccc12 [Dynole 34-2, 2-Cyano-N-octyl-3-(1-(3-dimethylaminopropyl)-1H-indol-3-yl)-acrylamide]
[1]
  Relative % viable cells: 98.8%
[2]; CD34, dose 0.04 mM, read-out: Relative % viable cells
  viability at 48 h, 0.04 mM: 99.5%
[2]; CD34, dose 0.2 mM, read-out: Relative % viable cells
  viability at 48 h, 0.2 mM: 99.5%
[2]; Relative % viable cells
  viability at 48 h, 0.04 mM: 99.4%
  viability at 48 h, 0.2 mM: 98.9%
[3]
  colocalization of IL-7R and clathrin: no significant difference
  colocalization of IL-7R with Rab5: markedly reduced
